Assays:
Test in all cases: relative viability (nuclei count vs DMSO), 5 days (fraction); higher = more cells survive
Decitabine + Alpelisib = compound: Nc1ncn([C@H]2C[C@H](O)[C@@H](CO)O2)c(=O)n1 [Decitabine] + Cc1nc(NC(=O)N2CCC[C@H]2C(N)=O)sc1-c1ccnc(C(C)(C)C(F)(F)F)c1 [Alpelisib] (partner 2 µM)
In short: (§1)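 Values are medians from duplicate plates. Each reflects relative viability, defined as the nuclei count of treated wells over that of vehicle wells. Lung cancer cell lines in 1536-well plates were pin-tool dosed one day after seeding with one drug alone or with a fixed anchor-drug dose plus five library-drug doses (not always all listed) in √10 steps, then fixed, stained and imaged at 4× after 5 days.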

Cediranib + Dasatinib = compound: COc1cc2c(Oc3ccc4[nH]c(C)cc4c3F)ncnc2cc1OCCCN1CCCC1 [Cediranib] + Cc1nc(Nc2ncc(C(=O)Nc3c(C)cccc3Cl)s2)cc(N2CCN(CCO)CC2)n1 [Dasatinib] (partner 0.075 µM)
In short: as §1

[1] = compound: O=C(C[C@H]1NCCC[C@@H]1O)Cn1cnc2cc(Br)c(Cl)cc2c1=O (racemic) [Halofuginone] + Nc1ncn([C@H]2C[C@H](O)[C@@H](CO)O2)c(=O)n1 [Decitabine] (partner 2 µM)
In short: as §1

Halofuginone + Foretinib = compound: O=C(C[C@H]1NCCC[C@@H]1O)Cn1cnc2cc(Br)c(Cl)cc2c1=O (racemic) [Halofuginone] + COc1cc2c(Oc3ccc(NC(=O)C4(C(=O)Nc5ccc(F)cc5)CC4)cc3F)ccnc2cc1OCCCN1CCOCC1 [Foretinib] (partner 0.25 µM)
In short: as §1

| Cell Line | relative viability (Decitabine + Alpelisib; first compound 0.04 µM) | relative viability (Decitabine + Alpelisib; first compound 0.1265 µM) | relative viability (Decitabine + Alpelisib; first compound 0.4 µM) | relative viability (Decitabine + Alpelisib; first compound 1.265 µM) | relative viability (Decitabine + Alpelisib; first compound 4 µM) | relative viability (Cediranib + Dasatinib; first compound 0.04 µM) | relative viability (Cediranib + Dasatinib; first compound 0.1265 µM) | relative viability (Cediranib + Dasatinib; first compound 0.4 µM) | relative viability (Cediranib + Dasatinib; first compound 1.265 µM) | relative viability (Cediranib + Dasatinib; first compound 4 µM) | relative viability ([1]; first compound 0.001 µM) | relative viability ([1]; first compound 0.003162 µM) | relative viability ([1]; first compound 0.01 µM) | relative viability ([1]; first compound 0.03162 µM) | relative viability ([1]; first compound 0.1 µM) | relative viability (Halofuginone + Foretinib; first compound 0.001 µM) | relative viability (Halofuginone + Foretinib; first compound 0.003162 µM) | relative viability (Halofuginone + Foretinib; first compound 0.01 µM) | relative viability (Halofuginone + Foretinib; first compound 0.03162 µM) | relative viability (Halofuginone + Foretinib; first compound 0.1 µM) |
| --- | --- | --- | --- | --- | --- | --- | --- | --- | --- | --- | --- | --- | --- | --- | --- | --- | --- | --- | --- | --- |
| RERF-LC-KJ | 0.87 | 0.914 | 0.702 | 0.643 | 0.569 | 0.823 | 0.695 | 0.842 | 0.834 | 0.838 | 0.842 | 0.807 | 0.664 | 0.753 | 0.563 | 0.902 | 1.01 | 0.967 | 0.853 | 0.815 |
| NCI-H1755 | 0.847 | 0.858 | 0.825 | 0.511 | 0.348 | 0.471 | 0.59 | 0.343 | 0.463 | 0.424 | 0.693 | 0.699 | 0.726 | 0.746 | 0.748 | 0.943 | 0.955 | 0.861 | 0.895 | 0.877 |
| SK-MES-1 | 0.733 | 0.738 | 0.482 | 0.32 | 0.261 | 0.37 | 0.47 | 0.413 | 0.427 | 0.252 | 0.377 | 0.365 | 0.341 | 0.341 | 0.17 | 1.06 | 1.06 | 0.911 | 0.828 | 0.611 |
| NCI-H2126 | 0.673 | 0.659 | 0.521 | 0.521 | 0.424 | 0.634 | 0.569 | 0.609 | 0.554 | 0.543 | 0.586 | 0.612 | 0.58 | 0.52 | 0.588 | 1.28 | 1.19 | 1.16 | 1.17 | 0.947 |
| EPLC-272H | 0.723 | 0.688 |  | 0.606 | 0.525 | 0.303 |  | 0.363 |  | 0.43 | 0.421 | 0.4 | 0.39 | 0.436 | 0.351 | 0.792 | 0.742 | 0.736 | 0.78 | 0.72 |
| NCI-H1975 | 0.414 | 0.357 | 0.318 | 0.292 | 0.275 | 0.361 | 0.35 | 0.337 | 0.356 | 0.352 | 0.4 | 0.408 | 0.436 | 0.385 | 0.285 | 0.945 | 1.04 | 0.796 | 0.79 | 0.251 |
| NCI-H3122 | 0.666 | 0.774 | 0.732 | 0.709 | 0.528 | 0.901 | 0.694 | 0.731 | 0.542 | 0.897 | 0.438 | 0.442 | 0.381 | 0.413 | 0.405 | 0.931 | 0.946 | 0.963 | 0.96 | 0.987 |
| COR-L 105 | 0.763 | 0.873 | 0.717 | 0.427 | 0.306 | 0.346 | 0.375 | 0.388 | 0.352 | 0.368 | 0.673 | 0.791 | 0.63 | 0.598 | 0.568 | 1.07 | 0.894 | 1.31 | 1.09 | 0.846 |
| BEN | 0.943 | 0.908 | 0.651 | 0.564 | 0.426 | 0.331 |  | 0.362 | 0.229 | 0.332 | 0.719 | 0.743 | 0.754 | 0.778 | 0.561 | 0.71 | 0.815 | 0.889 | 0.646 | 0.242 |
| NCI-H1915 | 0.475 | 0.301 | 0.272 | 0.227 | 0.247 | 0.279 | 0.305 | 0.305 | 0.324 | 0.345 | 0.25 | 0.265 | 0.257 | 0.274 | 0.253 | 1.12 | 1.16 | 1.07 | 1.03 | 0.97 |
| NCI-H650 | 0.739 | 0.538 | 0.484 | 0.326 | 0.29 | 0.434 | 0.458 | 0.434 | 0.453 | 0.482 | 0.362 | 0.314 | 0.285 | 0.323 | 0.28 | 1.07 | 0.966 | 0.965 | 1.06 | 0.885 |
| NCI-H2009 | 1 | 0.88 | 0.593 | 0.413 | 0.303 | 0.311 | 0.523 | 0.301 | 0.297 | 0.309 | 0.343 | 0.332 | 0.403 | 0.415 | 0.308 | 1.21 | 1.23 | 1.13 | 1.18 | 0.775 |
| COR-L23 | 0.412 | 0.346 | 0.311 | 0.225 | 0.213 | 0.522 | 0.503 | 0.499 | 0.57 | 0.662 | 0.518 | 0.511 | 0.421 | 0.465 | 0.217 | 1 | 0.996 | 1.02 | 0.904 | 0.353 |
| NCI-H460 | 0.425 | 0.575 | 0.348 | 0.268 | 0.191 | 0.51 | 0.634 | 0.466 | 0.459 | 0.562 | 0.47 | 0.509 | 0.518 | 0.501 | 0.0841 | 1.01 | 1.08 | 0.899 | 0.942 | 0.113 |
| LCLC-103H | 0.888 | 0.958 | 0.487 | 0.858 | 0.64 | 0.594 | 0.578 | 0.413 | 0.511 | 0.5 | 0.773 | 0.78 | 0.735 | 0.711 | 0.728 | 0.871 | 0.768 | 0.813 | 0.749 | 0.848 |
| HCC-827 |  | 0.426 | 0.356 | 0.279 | 0.311 | 0.284 |  | 0.226 | 0.309 | 0.275 | 0.332 | 0.282 | 0.207 | 0.295 | 0.308 | 1.03 | 0.974 | 0.962 | 1.1 | 0.947 |
